Assay results published in paper PMC7150870 (Toxins, 2020).
Like-named read-outs stand apart in the source and are kept apart here. Marks after values point to notes of the source that are not given here.

How the values were obtained:
HepG2 = format: cell-based, human
RAW 264.7 = format: cell-based, mouse
Caco-2 = format: cell-based, human
HEK293T [1] = format: cell-based, human
[2] = system: HepG2, Caco-2, RAW 264.7, and HEK 293T cells
HEK293T [3] = format: cell-based, human; remark: listed apart in the source
HEK293T cells = format: cell-based, human; conditions: read-out: IC50 halving the HEK293T cells viability
HEK 293T cells [4] = format: cell-based, human
cells = conditions: cited from earlier work
epithelial cell layers = conditions: cited from earlier work
HEK 293T cells [5] = system: HEK 293T cells
[6] = read-out: IC50 range in studied cells
[7] = human (Caco-2), mouse (RAW 264.7)

Molecule	IC50 (HepG2) [nM]	metabolites found by non-target U-HPLC-MS analysis (Caco-2 cells)	transepithelial transport, Apical Medium (Caco-2 cells)	transepithelial transport, Basolateral Medium (Caco-2 cells)	transepithelial transport, Caco-2 Cells (Caco-2 cells)	transepithelial transport, Raw 264.7 Cells (Caco-2 cells)	transepithelial transport, Total (Caco-2 cells)	IC50 (RAW 264.7) [nM]	IC50 (Caco-2) [nM]	IC50 (HEK293T [1]) [nM]	IC50 [2, 6] [nM]	combination index, mixture of T-2 (3.87 nM) (HEK293T [3])	type of interaction, mixture of T-2 (3.87 nM) (HEK293T [3])	IC50 (HEK293T cells) [nM]	combination index, silibinin 1.7 µM (HEK 293T cells [4])	combination index, mixture of DAS (6.58 nM) (HEK293T [3])	combination index, mixture of HT-2 (21.22 nM) (HEK293T [3])	type of interaction, mixture of DAS (6.58 nM) (HEK293T [3])	type of interaction, mixture of HT-2 (21.22 nM) (HEK293T [3])	concentration with statistically significant decrease in viability of cells (cells) [µM]	further results
diacetoxyscirpenol [DAS]	13.4 ± 1.79	15-monoacetoxyscirpenol, 4-monoacetoxyscirpenol, 7-hydroxy, 8β-hydroxy, and deepoxy-15- monoacetoxyscirpenol	29.61 ± 0.87^abc %	40.12 ± 0.50^f %	0.02 ± 0.00^a %	0.02 ± 0.00^a %	69.77 ± 0.99^cd %	3.66 ± 0.37	17.7 ± 0.66	6.58 ± 0.36	3.66 to 17.7	0.64 ± 0.01 Syn	0.64 ± 0.01 Syn (key: Syn: Combination index (CI) < 0.9; Add: 0.9 ≤ CI ≤ 1; Ant: CI > 1)	15	1.23 ± 0.06 Ant						combination index, silibinin 0.9 µM (HEK 293T cells [4]): 1.00 ± 0.04 Add; combination index, silibinin 3.4 µM (HEK 293T cells [4]): 1.21 ± 0.05 Ant; combination index, silibinin 6.8 µM (HEK 293T cells [4]): 1.50 ± 0.04 Ant; combination index, silibinin 13.6 µM (HEK 293T cells [4]): 1.56 ± 0.13 Ant; combination index, silibinin 27.3 µM (HEK 293T cells [4]): 1.48 ± 0.08 Ant; combination index, silibinin 54.5 µM (HEK 293T cells [4]): 1.15 ± 0.02 Ant; combination index, silibinin 109.00 µM (HEK 293T cells [4]): 1.14 ± 0.01 Ant; type of interaction, silibinin 0.9 µM (HEK 293T cells [4]): 1.00 ± 0.04 Add (key: Syn: Combination index (CI) < 0.9; Add: 0.9 ≤ CI ≤ 1; Ant: CI > 1); type of interaction, silibinin 1.7 µM (HEK 293T cells [4]): 1.23 ± 0.06 Ant (key: Syn: Combination index (CI) < 0.9; Add: 0.9 ≤ CI ≤ 1; Ant: CI > 1); type of interaction, silibinin 3.4 µM (HEK 293T cells [4]): 1.21 ± 0.05 Ant (key: Syn: Combination index (CI) < 0.9; Add: 0.9 ≤ CI ≤ 1; Ant: CI > 1); type of interaction, silibinin 6.8 µM (HEK 293T cells [4]): 1.50 ± 0.04 Ant (key: Syn: Combination index (CI) < 0.9; Add: 0.9 ≤ CI ≤ 1; Ant: CI > 1); type of interaction, silibinin 13.6 µM (HEK 293T cells [4]): 1.56 ± 0.13 Ant (key: Syn: Combination index (CI) < 0.9; Add: 0.9 ≤ CI ≤ 1; Ant: CI > 1); type of interaction, silibinin 27.3 µM (HEK 293T cells [4]): 1.48 ± 0.08 Ant (key: Syn: Combination index (CI) < 0.9; Add: 0.9 ≤ CI ≤ 1; Ant: CI > 1); type of interaction, silibinin 54.5 µM (HEK 293T cells [4]): 1.15 ± 0.02 Ant (key: Syn: Combination index (CI) < 0.9; Add: 0.9 ≤ CI ≤ 1; Ant: CI > 1); type of interaction, silibinin 109.00 µM (HEK 293T cells [4]): 1.14 ± 0.01 Ant (key: Syn: Combination index (CI) < 0.9; Add: 0.9 ≤ CI ≤ 1; Ant: CI > 1)
enniatin A1 [ENN-A1]												1.27 ± 0.13 Ant	1.27 ± 0.13 Ant (key: Syn: Combination index (CI) < 0.9; Add: 0.9 ≤ CI ≤ 1; Ant: CI > 1)			0.79 ± 0.04 Syn	0.93 ± 0.01 Add	0.79 ± 0.04 Syn (key: Syn: Combination index (CI) < 0.9; Add: 0.9 ≤ CI ≤ 1; Ant: CI > 1)	0.93 ± 0.01 Add (key: Syn: Combination index (CI) < 0.9; Add: 0.9 ≤ CI ≤ 1; Ant: CI > 1)	1	
beauvericin												0.95 ± 0.07 Add	0.95 ± 0.07 Add (key: Syn: Combination index (CI) < 0.9; Add: 0.9 ≤ CI ≤ 1; Ant: CI > 1)			0.96 ± 0.04 Add	0.91 ± 0.04 Add	0.96 ± 0.04 Add (key: Syn: Combination index (CI) < 0.9; Add: 0.9 ≤ CI ≤ 1; Ant: CI > 1)	0.91 ± 0.04 Add (key: Syn: Combination index (CI) < 0.9; Add: 0.9 ≤ CI ≤ 1; Ant: CI > 1)	3	
CC(=O)OC[C@]12C[C@H](OC(=O)CC(C)C)C(C)=C[C@H]1O[C@@H]1[C@H](O)[C@@H](O)[C@@]2(C)[C@]12CO2 [HT-2, HT-2 toxin]	47.4 ± 1.29							5.07 ± 0.46	44.2 ± 2.26	21.2 ± 1.6	5.07 to 47.4	0.67 ± 0.04 Syn	0.67 ± 0.04 Syn (key: Syn: Combination index (CI) < 0.9; Add: 0.9 ≤ CI ≤ 1; Ant: CI > 1)	30	1.10 ± 0.02 Add	0.54 ± 0.03 Syn		0.54 ± 0.03 Syn (key: Syn: Combination index (CI) < 0.9; Add: 0.9 ≤ CI ≤ 1; Ant: CI > 1)			transepithelial transport, Apical Medium (Caco-2 cells; [7]): 72.63±2.25^f %; transepithelial transport, Basolateral Medium (Caco-2 cells; [7]): 49.18 ± 1.80^g %; transepithelial transport, Caco-2 Cells (Caco-2 cells; [7]): 0.01 ± 0.00^a %; transepithelial transport, Raw 264.7 Cells (Caco-2 cells; [7]): 0.01 ± 0.00^a %; transepithelial transport, Total (Caco-2 cells; [7]): 121.83 ± 1.33^f %; transport through the epithelial cell layers (epithelial cell layers): ≤ 32%; combination index, silibinin 3.4 µM (HEK 293T cells [4]): 1.27 ± 0.11 Ant; combination index, silibinin 6.8 µM (HEK 293T cells [4]): 1.57 ± 0.15 Ant; combination index, silibinin 13.6 µM (HEK 293T cells [4]): 1.25 ± 0.08 Ant; combination index, silibinin 27.3 µM (HEK 293T cells [4]): 1.06 ± 0.07 Add; combination index, silibinin 54.5 µM (HEK 293T cells [4]): 1.03 ± 0.04 Add; combination index, silibinin 109.00 µM (HEK 293T cells [4]): 1.08 ± 0.03 Add; type of interaction, silibinin 1.7 µM (HEK 293T cells [4]): 1.10 ± 0.02 Add (key: Syn: Combination index (CI) < 0.9; Add: 0.9 ≤ CI ≤ 1; Ant: CI > 1); type of interaction, silibinin 3.4 µM (HEK 293T cells [4]): 1.27 ± 0.11 Ant (key: Syn: Combination index (CI) < 0.9; Add: 0.9 ≤ CI ≤ 1; Ant: CI > 1); type of interaction, silibinin 6.8 µM (HEK 293T cells [4]): 1.57 ± 0.15 Ant (key: Syn: Combination index (CI) < 0.9; Add: 0.9 ≤ CI ≤ 1; Ant: CI > 1); type of interaction, silibinin 13.6 µM (HEK 293T cells [4]): 1.25 ± 0.08 Ant (key: Syn: Combination index (CI) < 0.9; Add: 0.9 ≤ CI ≤ 1; Ant: CI > 1); type of interaction, silibinin 27.3 µM (HEK 293T cells [4]): 1.06 ± 0.07 Add (key: Syn: Combination index (CI) < 0.9; Add: 0.9 ≤ CI ≤ 1; Ant: CI > 1); type of interaction, silibinin 54.5 µM (HEK 293T cells [4]): 1.03 ± 0.04 Add (key: Syn: Combination index (CI) < 0.9; Add: 0.9 ≤ CI ≤ 1; Ant: CI > 1); type of interaction, silibinin 109.00 µM (HEK 293T cells [4]): 1.08 ± 0.03 Add (key: Syn: Combination index (CI) < 0.9; Add: 0.9 ≤ CI ≤ 1; Ant: CI > 1)
CC(C)C[C@@H]1NC(=O)[C@H](C)N(C)C(=O)CNC(=O)/C(=C/c2ccccc2)N(C)C1=O [TEN, tentoxin]		metabolite M1, metabolite M2, and metabolite M3	28.07 ± 0.62^abc %	7.25 ± 0.72^ab %	0.00 ± 0.00^a %	0.00 ± 0.00^a %	35.33 ± 0.10^ab %					0.92 ± 0.07 Add	0.92 ± 0.07 Add (key: Syn: Combination index (CI) < 0.9; Add: 0.9 ≤ CI ≤ 1; Ant: CI > 1)			0.92 ± 0.17 Add	0.94 ± 0.04 Add	0.92 ± 0.17 Add (key: Syn: Combination index (CI) < 0.9; Add: 0.9 ≤ CI ≤ 1; Ant: CI > 1)	0.94 ± 0.04 Add (key: Syn: Combination index (CI) < 0.9; Add: 0.9 ≤ CI ≤ 1; Ant: CI > 1)		percentage of DNA in comet tail with respect to the negative control (HEK 293T cells [5]): no significant DNA damage; IC50 [2]: > 50 nM
enniatin A [ENN-A]												0.86 ± 0.07 Syn	0.86 ± 0.07 Syn (key: Syn: Combination index (CI) < 0.9; Add: 0.9 ≤ CI ≤ 1; Ant: CI > 1)			0.83 ± 0.05 Syn	0.80 ± 0.06 Syn	0.83 ± 0.05 Syn (key: Syn: Combination index (CI) < 0.9; Add: 0.9 ≤ CI ≤ 1; Ant: CI > 1)	0.80 ± 0.06 Syn (key: Syn: Combination index (CI) < 0.9; Add: 0.9 ≤ CI ≤ 1; Ant: CI > 1)	1	
